Reference: patent US11149036B2, “3-(1H-pyrazol-4-yl)pyridine allosteric modulators of the M4 muscarinic acetylcholine receptor” (Merck Sharp & Dohme Corp., priority 2017, dated 2021)

Target: T1, human M4 muscarinic acetylcholine receptor (Homo sapiens, UniProt P08173)
T1 construct: expressed in transfected cells; host or cells: CHO-K1
T1 sequence (P08173 1-479): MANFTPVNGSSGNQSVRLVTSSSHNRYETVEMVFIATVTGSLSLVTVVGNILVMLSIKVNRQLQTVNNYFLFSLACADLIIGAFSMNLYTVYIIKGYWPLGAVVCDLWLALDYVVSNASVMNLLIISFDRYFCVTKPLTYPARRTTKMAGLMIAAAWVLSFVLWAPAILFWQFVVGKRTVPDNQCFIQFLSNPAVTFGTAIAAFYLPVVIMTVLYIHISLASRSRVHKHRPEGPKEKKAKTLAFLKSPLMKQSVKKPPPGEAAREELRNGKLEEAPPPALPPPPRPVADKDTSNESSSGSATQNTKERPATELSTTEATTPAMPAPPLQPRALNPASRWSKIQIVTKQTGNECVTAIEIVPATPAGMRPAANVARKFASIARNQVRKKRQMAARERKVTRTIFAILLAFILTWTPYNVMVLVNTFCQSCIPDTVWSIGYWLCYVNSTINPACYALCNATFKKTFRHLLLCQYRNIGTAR
Experiment: human FLIPR-based M4 PAM assay (CHO-K1 cells with human M4 receptor and Gaqi5, calcium dye fluorescence)
Type: cell-based
Details: inflection point (IP) of dose response curve, acetylcholine added at 20% of maximum response, read-out: M4 FLIPPR Hu IP
Method: (§1) In a typical experiment the M4 muscarinic acetylcholine receptor modulating activity of the compounds of the present invention was determined in accordance with the following experimental method. CHO-K1 cells stably transfected with human M4 receptor and chimeric G-protein Gaqi5 (Coward P, et al., Analytical Biochemistry, 270:242-248 (1999)) are thawed from liquid N2 storage, resuspended in growth medium, plated in black, clear bottom 384 well plates, and incubated 16-20 hours at 37° C., 5% CO2. On the day of assay, growth medium is removed, the cells are washed 2 times with wash buffer, and cells are incubated in dye loading buffer at 37° C., 5% CO2 for ˜1 hour. Following dye loading the cell plates are placed in a FLIPR Tetra instrument and while monitoring dye fluorescence (excitation 470-495 […]), 10 uL of test substance at increasing concentrations is added, and fluorescence values are recorded for 4 min. Next, 10 uL of acetylcholine is added (final concentration calculated so as to achieve 20% of the maximum acetycholine response), and the fluorescence reading is continued for 3.5 min. In some cases, a third addition of acetylcholine (final concentration calculated to achieve 70% of the maximal acetylcholine response) is performed. The resulting dose response curves are fit to a 4 parameter logistic equation and the final result is determined as the inflection point (IP) of the curve
as §1, with “CHO-K1” for “In a typical experiment the M4 muscarinic acetylcholine receptor modulating activity of the compounds of the present invention was determined in accordance with the following experimental method. CHO-K1”, “Gaqi5” for “Gaqi5 (Coward P, et al., Analytical Biochemistry, 270:242-248 (1999))”, “performed.” for “performed. The resulting dose response curves are fit to a 4 parameter logistic equation and the final result is determined as the inflection point (IP) of the curve”

Row | Compound | EC50
1 | Cc1ccc(-c2cnn(CC3CCCC3)c2)c(-c2ccc3c(c2)nc(Cl)n3C)n1 [Example 152, 2-chloro-5-(3-(1-(cyclopentylmethyl)-1H-pyrazol-4-yl)-6-methylpyridin-2-yl)-1-methyl-1H-benzo[d]imidazole] | 80 nM
2 | Cc1nc2cc(-c3nc(C#N)ccc3-c3cnn(CC4(F)CCCC4)c3)cnc2n1C [Example 63, 6-(2,3-dimethyl-3H-imidazo[4,5-b]pyridin-6-yl)-5-(1-((1-fluorocyclopentyl)methyl)-1H-pyrazol-4-yl)picolinonitrile] | 63 nM
3 | Cn1nnc2cc(-c3nc(C#N)ccc3-c3cnn(CC4(C)CCCC4)c3)ccc21 [Example 124, 6-(1-methyl-1H-benzo[d][1,2,3]triazol-5-yl)-5-(1-((1-methylcyclopentyl)methyl)-1H-pyrazol-4-yl)picolinonitrile] | 27 nM
4 | Cn1ccc2ccc(-c3nc(C#N)ccc3-c3cnn(CC4CCCC4)c3)cc2c1=O [Example 39, 5-(1-(cyclopentylmethyl)-1H-pyrazol-4-yl)-6-(2-methyl-1-oxo-1,2-dihydroisoquinolin-7-yl)picolinonitrile] | 111 nM
5 | CN1Cc2ncc(-c3nc(C#N)ccc3-c3cnn(CC4(F)CCCC4)c3)cc2C1=O [Example 41, 5-(1-((1-fluorocyclopentyl)methyl)-1H-pyrazol-4-yl)-6-(6-methyl-5-oxo-6,7-dihydro-5H-pyrrolo[3,4-b]pyridin-3-yl)picolinonitrile] | 45 nM
6 | Cc1ccc(-c2cnn(CC3CCCC3)c2)c(-c2ccc3oc(C)nc3c2)n1 [Example 11, 5-(3-(1-(cyclopentylmethyl)-1H-pyrazol-4-yl)-6-methylpyridin-2-yl)-2-methylbenzo[d]oxazole] | 46 nM
7 | N#Cc1ccc(-c2cnn(CC3(F)CCCC3)c2)c(-c2ccn3c(Br)cnc3c2)n1 [Example 153, 6-(3-bromoimidazo[1,2-a]pyridin-7-yl)-5-(1-((1-fluorocyclopentyl)methyl)-1H-pyrazol-4-yl)picolinonitrile] | 23 nM
8 | Cc1ccc(-c2cnn(CC3C[C@@H](F)[C@@H](F)C3)c2)c(-c2ccc3cccnc3c2)n1 (mixture of isomers) [Example 27, 7-(3-(1-(((3R,4S and 3S,4R)-3,4-difluorocyclopentyl)methyl)-1H-pyrazol-4-yl)-6-methylpyridin-2-yl)quinoline (+/−)] | 64 nM
9 | Cc1cnc(-c2ccn3ccnc3c2)c(-c2cnn(CC3(C)CCCC3)c2)c1 [Example 112, 7-(5-methyl-3-(1-((1-methylcyclopentyl)methyl)-1H-pyrazol-4-yl)pyridin-2-yl)imidazo[1,2-a] pyridine] | 46 nM

The next compounds have a lower EC50 than those just listed; values first:

Row | EC50 | Compound
10 | 22 nM | COc1cc2ccc(-c3nc(C#N)ccc3-c3cnn(CC4(F)CCCC4)c3)cn2n1 [Example 64, 5-(1-((1-fluorocyclopentyl)methyl)-1H-pyrazol-4-yl)-6-(2-methoxypyrazolo[1,5-a]pyridin-6-yl)picolinonitrile]
11 | 11 nM | Cc1ccc(-c2cnn(CC3(C)CCCC3)c2)c(-c2ccc3cc(F)cnc3c2)n1 [Example 32, 3-fluoro-7-(6-methyl-3-(1-((1-methylcyclopentyl)methyl)-1H-pyrazol-4-yl)pyridin-2-yl) quinoline]
12 | 7 nM | COc1cc2ccc(-c3nc(C)c(C)cc3-c3cnn(CC4(C)CCCC4)c3)cc2nn1 [Example 157, 7-(5,6-dimethyl-3-(1-((1-methylcyclopentyl)methyl)-1H-pyrazol-4-yl)pyridin-2-yl)-3-methoxycinnoline]
13 | 7 nM | COc1cc2ccc(-c3nc(C)ccc3-c3cnn(CC4CCCC4)c3F)cc2nn1 [Example 12, 7-(3-(1-(cyclopentylmethyl)-5-fluoro-1H-pyrazol-4-yl)-6-methylpyridin-2-yl)-3-methoxycinnoline]
14 | 4 nM | COc1cc2ccc(-c3nc(F)ccc3-c3cnn(CC4(C)CCCC4)c3)cc2nn1 [Example 92, 7-(6-fluoro-3-(1-((1-methylcyclopentyl)methyl)-1H-pyrazol-4-yl)pyridin-2-yl)-3-methoxycinnoline]
